Like-named read-outs stand apart in the source and are kept apart here.
Experiments:
Aliivibrio fischeri = experiment: Microtox acute toxicity test; assay type: cell-based; conditions: tested at 1, 10 and 100 µM
Source text: All studied compounds were subjected to a Microtox acute toxicity test. The test is based on bioluminescent Aliivibrio fischeri bacteria, which are very sensitive to the presence of toxic substances. Changes in the toxicity of the environment surrounding the bacterium influence its respiratory processes and translate into the emitted bioluminescence intensity. Therefore, in contact with a toxic substance at a specific concentration, a linear decrease in luminescence is observed. Dimethylsulfoxide was used as a solubilizer of studied compounds in amounts not exceeding 1% v/v. To determine the effect of the solvent alone, 1% DMSO solution in water was also tested.
The acute toxicity of the tested curcumionoids was investigated on a Modern Water Microtox Model 500 apparatus equipped with Modern Water MicrotoxOmni 4.2 software, according to the 81.9% screening test procedure provided by the manufacturer (Modern Water, London, UK). All the reagents and solutions (Microtox Acute Reagent, Microtox Diluent, and Microtox Osmotic Adjusting Solution) were purchased from Tigret (Warsaw, Poland). Solutions of the tested compounds were prepared using DMSO and deionized water. […] Each compound was tested at three final concentrations (1 µM, 10 µM, and 100 µM) and at two time points: 5 min and 15 min. The change in the bacterial bioluminescence was monitored after the addition of the sample solution and compared to the negative control.

P. aeruginosa = conditions: 50 µg/mL; 670 nm; 97.65 J/cm^2; 5 min; cited from earlier work
S. aureus = conditions: cited from earlier work
[1] = cited from earlier work
[2] = parameters: method as in doi:10.1016/j.synthmet.2008.06.007; conditions: TTF column, cited from earlier work

COc1cc(C=CC2=CC(C=Cc3ccc(O)c(OC)c3)=[O+][B-](F)(F)O2)ccc1O [curcumin–BF2 complex, reference compound]
acute toxicity / ecotoxicity verdict (Aliivibrio fischeri): toxic at every concentration tested

Cc1cc2nc3ccc(N(C)C)cc3[s+]c2cc1N.[Cl-] [Toluidine blue]
Efficiency (log reduction) (P. aeruginosa): 2.36 log
Efficiency (log reduction) (S. aureus; 50 µg/mL, 670 nm, 97.65 J/cm^2, 5 min): 2.66 log

O=C([O-])c1c(Cl)c(Cl)c(Cl)c(Cl)c1-c1c2cc(I)c(=O)c(I)c-2oc2c(I)c([O-])c(I)cc12.[Na+].[Na+] [Rose bengal]
Efficiency (log reduction) (S. aureus; 0.31 µg/mL, 515 nm, 5.8 mW/cm^2, 37 J/cm^3): 6 log
Efficiency (log reduction) (S. aureus; 0.62 µg/mL, 515 nm, 5.8 mW/cm^2, 18 J/cm^2): 6 log

[Zn+2].c1ccc2c(c1)-c1nc-2nc2[n-]c(nc3nc([n-]c4nc(n1)-c1ccccc1-4)-c1ccccc1-3)c1ccccc21 [ZnPc, zinc(II) phthalocyanine]
10^−5 Φp (photodecomposition quantum yield) ([1]; DMF): 1.02 [38] 10^−5
ΦP (photodecomposition quantum yield) ([1]; DMF): 10.2 × 10^−6
10^−5 Φp (photodecomposition quantum yield) ([1]; DMSO): 0.35 [39] 10^−5
ΦP (photodecomposition quantum yield) ([1]; DMSO): 3.5 × 10^−6
singlet oxygen quantum yield ([2]; DMF): 0.56 [39]
singlet oxygen quantum yield ([2]; DMSO): 0.67 [39]

Source: publication PMC11478334, “Quaternized Curcumin Derivative—Synthesis, Physicochemical Characteristics, and Photocytotoxicity, Including Antibacterial Activity after Irradiation with Blue Light” (Molecules, 2024)
